{
  "source": "patent US20180228823A1",
  "about": "“ANTI-DIABETIC EFFECTS OF GYPENOSIDE 75” (INTELLIGENT SYNTHETIC BIOLOGY CENTER, priority 2016, published 2018)",
  "type_in_all_cases": "cell-based",
  "key": {"[1]": {"test_system": "INS-1 cells", "test": "Insulin secretion of INS-1 cells measured by ELISA", "settings": "10 μM, 2 hours", "experimental": "In order to confirm the effect of gypenoside 75 on an increase in insulin secretion, the amount of insulin secreted after treatment with gypenoside 75 was measured. Specifically, in order to confirm the effect of gypenoside 75 on an increase in insulin secretion, INS-1 cells, which are insulin-secreting cells, were cultured in a cell incubator (37° C., 5% CO2, RPMI culture medium, 10% FBS). The cells were treated with each of 10 μM of gypenoside 75, ginsenoside F1, ginsenoside Rg3, ginsenoside Rb2, and ginsenoside Rb3 for 2 hours, and the amounts of insulin secreted after the treatments were then measured via the ELISA method."}, "[2]": {"test_system": "INS-1 cells", "test": "Intracellular ATP amount by luciferase/luciferin assay in INS-1 cells", "settings": "10 μM, 2 hours, luciferase", "experimental": "(§1) If mitochondrial function is impaired, it may cause diabetes mellitus by interfering with insulin signaling. Accordingly, in order to confirm the effect of gypenoside 75 on the activation of the mitochondrial function, after gypenoside 75 was treated, an increased amount of ATP and mitochondrial membrane potentials were measured. Specifically, in order to confirm the effect of gypenoside 75 on the activation of the mitochondrial function, INS-1 cells, which are insulin-secreting cells, were cultured in a cell incubator (37° C., 5% CO2, RPMI culture medium, 10% FBS). The cells were treated with 10 μM of gypenoside 75 for 2 hours, and the amount of ATP and mitochondrial membrane potentials inside the cells were then measured. To measure the amount of intracellular ATP, the INS-1 cells treated with gypenoside 75 were lysed through freezing-thawing and ultrasonication methods. The cell lysates were mixed with luciferase and luciferin to induce fluorescence. As the activation of the luciferase and fluorescence induced thereby depend on the amount of ATP, the degree of fluorescence was measured with a fluorometer to determine the amount of ATP. To measure the mitochondrial membrane potential, the INS-1 cells treated with gypenoside 75 were then stained with TMRM, and the degree of the staining of each cell was measured using a FACS instrument. As the mitochondrial membrane potential increases, the degree of staining by TMRM increases."}, "[3]": {"test_system": "INS-1 cells", "test": "Mitochondrial membrane potential by TMRM staining and FACS in INS-1 cells", "settings": "10 μM, 2 hours, TMRM staining, FACS", "experimental": "as §1"}},
  "data": [
    {"smiles": "CC(C)=CCC[C@](C)(O[C@@H]1O[C@H](CO)[C@@H](O)[C@H](O)[C@H]1O)[C@H]1CC[C@]2(C)[C@@H]1[C@H](O)C[C@@H]1[C@@]3(C)CC[C@H](O)C(C)(C)[C@@H]3[C@@H](O)C[C@]12C", "note": "[ginsenoside F1]", "values": [
      {"measurement": "increase of the amount of insulin secreted compared to control group (DMSO)", "setting": "[1]", "value": 50, "unit": "%"},
      {"measurement": "increase of the amount of intracellular ATP compared to control group (DMSO)", "setting": "[2]", "value": "about 40%"},
      {"measurement": "increase of mitochondrial membrane potential compared to control group (DMSO)", "setting": "[3]", "value": "about 20%"}
    ]},
    {"smiles": "CC(C)=CCC[C@](C)(O)[C@H]1CC[C@]2(C)[C@@H]1[C@H](O)C[C@@H]1[C@@]3(C)CC[C@H](O[C@@H]4O[C@H](CO)[C@@H](O)[C@H](O)[C@H]4O[C@@H]4O[C@H](CO)[C@@H](O)[C@H](O)[C@H]4O)C(C)(C)[C@@H]3CC[C@]12C", "note": "[ginsenoside Rg3]", "values": [
      {"measurement": "increase of the amount of insulin secreted compared to control group (DMSO)", "setting": "[1]", "value": 50, "unit": "%"},
      {"measurement": "increase of the amount of intracellular ATP compared to control group (DMSO)", "setting": "[2]", "value": "about 40%"},
      {"measurement": "increase of mitochondrial membrane potential compared to control group (DMSO)", "setting": "[3]", "value": "about 20%"}
    ]},
    {"smiles": "CC(C)=CCC[C@](C)(O[C@@H]1O[C@H](CO[C@@H]2O[C@H](CO)[C@@H](O)[C@H](O)[C@H]2O)[C@@H](O)[C@H](O)[C@H]1O)[C@H]1CC[C@]2(C)[C@@H]1[C@H](O)C[C@@H]1[C@@]3(C)CC[C@H](O)C(C)(C)[C@@H]3CC[C@]12C", "note": "[gypenoside 75]", "values": [
      {"measurement": "increase of the amount of insulin secreted compared to control group (DMSO)", "setting": "[1]", "value": "about 110%"},
      {"measurement": "increase of the amount of intracellular ATP compared to control group (DMSO)", "setting": "[2]", "value": 50, "unit": "%"},
      {"measurement": "increase of mitochondrial membrane potential compared to control group (DMSO)", "setting": "[3]", "value": "about 40%"}
    ]},
    {"smiles": "CC(C)=CCC[C@](C)(O[C@@H]1O[C@H](CO[C@@H]2OC[C@@H](O)[C@H](O)[C@H]2O)[C@@H](O)[C@H](O)[C@H]1O)[C@H]1CC[C@]2(C)[C@@H]1[C@H](O)C[C@@H]1[C@@]3(C)CC[C@H](O[C@@H]4O[C@H](CO)[C@@H](O)[C@H](O)[C@H]4O[C@@H]4O[C@H](CO)[C@@H](O)[C@H](O)[C@H]4O)C(C)(C)[C@@H]3CC[C@]12C", "note": "[ginsenoside Rb3]", "values": [
      {"measurement": "increase of the amount of insulin secreted compared to control group (DMSO)", "setting": "[1]", "value": 50, "unit": "%"},
      {"measurement": "increase of the amount of intracellular ATP compared to control group (DMSO)", "setting": "[2]", "value": "about 40%"},
      {"measurement": "increase of mitochondrial membrane potential compared to control group (DMSO)", "setting": "[3]", "value": "about 20%"}
    ]},
    {"smiles": "CC(C)=CCC[C@](C)(O[C@@H]1O[C@H](CO[C@@H]2OC[C@H](O)[C@H](O)[C@H]2O)[C@@H](O)[C@H](O)[C@H]1O)[C@H]1CC[C@]2(C)[C@@H]1[C@H](O)C[C@@H]1[C@@]3(C)CC[C@H](O[C@@H]4O[C@H](CO)[C@@H](O)[C@H](O)[C@H]4O[C@@H]4O[C@H](CO)[C@@H](O)[C@H](O)[C@H]4O)C(C)(C)[C@@H]3CC[C@]12C", "note": "[ginsenoside Rb2]", "values": [
      {"measurement": "increase of the amount of insulin secreted compared to control group (DMSO)", "setting": "[1]", "value": 50, "unit": "%"},
      {"measurement": "increase of the amount of intracellular ATP compared to control group (DMSO)", "setting": "[2]", "value": "about 40%"},
      {"measurement": "increase of mitochondrial membrane potential compared to control group (DMSO)", "setting": "[3]", "value": "about 20%"}
    ]}
  ]
}
